SMILES strings stand for the structures.

The data set can be described thus: in vitro. As to conditions: human, hela cells, % viability.

Consider `CC1=CC2=NC3(CCC3)[C@@H]3C[C@@H](O)[C@@H](O)[C@@H]3N2O1` [CBK303257], for which the viability at 28.5 h, 10 µM was 92%.
On the same count and under the same terms, as for `COc1ccc2c(c1)sc1ncc(C#N)n12` [CBK016716], the figure is 87.9%.
For the compound `CCCCc1nnc(CC(C)C)o1` [CBK008679], the viability at 28.5 h, 10 µM was determined as 106%.
On the same count and under the same terms, the value for `O=c1[nH]c2ncc(-c3cccc4ncccc34)nc2n1C1CCCCC1` [CBK064861] was 109%; that for `CCOC(=O)CN1CCN(c2nccnc2OCCN2CCOCC2)CC1` [CBK082897] was 93.9%; that for `CS(=O)(=O)Nc1cc2ccccc2c(-c2ccncc2)n1` [CBK085746] was 92%.
For the compound `Cc1ccccc1N1C(=O)NC(=O)C(CCc2ccncc2)(Cc2ccc3c(c2)OCO3)C1=O` (centres unmarked) [CBK266289], the viability at 28.5 h, 10 µM (bulk resorufin, single well) came to 92%.
For the compound `CC(C)OC(=O)c1cccnc1N1CCN(CCCC(c2ccc(F)cc2)c2ccc(F)cc2)CC1` [CBK025340C], the viability at 28.5 h, 10 µM stood at 103%.
Same read-out and setting: as for `CCCn1c(=N)n(CCOc2cccc(C)c2)c2ccccc21` [CBK264746B], the figure is 89.2%.
In the case of `COC(=O)c1ccsc1NS(=O)(=O)Cc1ccccc1` [CBK039067], the viability at 28.5 h, 10 µM stood at 108%.
For the compound `Cc1cc(/C=C2\C(=O)NC(=O)N(c3ccccc3F)C2=O)c(C)n1-c1cc(C(=O)O)cc(C(=O)O)c1` [CBK264028], the viability at 28.5 h, 10 µM (bulk resorufin, single well) is 89.9%.
On to `N#Cc1c(NC(=O)CSc2nnc(-c3ccc(Cl)cc3)o2)oc(-c2ccccc2)c1-c1ccccc1` [CBK267655], for which the viability at 28.5 h, 10 µM worked out at 93.9%.
On the same count and under the same terms, as for `COCC(=O)NCC1Cc2cc(F)cc(-c3ccc(C(C)=O)s3)c2O1` (centres unmarked) [CBK307310], the figure is 98.4%; as for `O=C(O)CC(NCc1ccccc1)C(=O)Nc1ccc(Cl)cc1` (centres unmarked) [CBK267141], 95.4%; as for `OC(CN1CCC2(CC1)CC(O)c1ccccc1O2)c1ccc(-c2ccccc2)cc1` (centres unmarked) [CBK286347], 101%.
Same read-out and setting: the value for `CC(Oc1ccc(/C=N/n2cnnc2)cc1)C(=O)O` (centres unmarked) [CBK263927] was 82%; that for `OB(O)c1ccc(Oc2ccc(B(O)O)cc2)cc1` [CBK261159] was 102%; that for `COc1cccc(CNc2ccc(-c3nc4ncccc4o3)cc2)c1OC` [CBK269716] was 91%.
On the same count and under the same terms, as for `COc1ccc(C(NC(=O)C2CCC(N)CC2)c2ccccc2C)cn1` (centres unmarked) [CBK078551], the figure is 92%.
Consider `COc1ccc(CC(=O)Nc2nc(OCC(F)(F)F)cnc2-c2ccc(Cl)cc2Cl)cc1` [CBK145359], for which the viability at 28.5 h, 10 µM was 91%.
Still for that read-out and setting: as for `Cc1c(CN2CCCC(n3cnc4cc(F)ccc43)C2)cnn1C` (centres unmarked) [CBK284478], the figure is 89.9%; as for `Cc1nn(C)c(C)c1CN1CCN(C(=S)Nc2ccc(S(N)(=O)=O)cc2)CC1` [CBK267030], 94.1%; as for `CCN1CCN(C(=O)c2cccc3[nH]ccc23)CC1` [CBK200246], 110%.
With `O=C(CCn1c2ccccc2c2ccccc21)NNC(=S)Nc1ccccc1` [CBK262106], the viability at 28.5 h, 10 µM was 94.6%.
The same measure, in the same setting: as for `COc1cc(C)c(Nc2cc(-c3ccc(F)c(F)c3)ncn2)cc1OC` [CBK090787], the figure is 73.4%.
Same read-out and setting: the value for `CSCCC(=O)NC1CCCc2nc(N3CCC(CO)CC3)ncc21` (centres unmarked) [CBK306782] was 91.3%.
Same read-out and setting: as for `Cc1nc(NC(=O)CN2CCN(c3cccc(Cl)c3)CC2)sc1C` [CBK305902], the figure is 88.5%.
Regarding `Cc1cccc(N2C(=O)NC(=O)C(CCc3ccncc3)(CCc3ccncc3)C2=O)c1C` [CBK268705], where the note is “bulk resorufin, single well”, the viability at 28.5 h, 10 µM came to 93.9%.
In the case of `CNC(=O)C1(Cc2ccccc2-c2cccs2)CCN(C(=O)Cc2cccc(C)c2)CC1` [CBK285686], the viability at 28.5 h, 10 µM worked out at 105%.
As to `CC(CCCC(C)(C)O)Nc1cncc(-c2ccc(C(N)=O)cc2)n1` (centres unmarked) [CBK066071], the viability at 28.5 h, 10 µM amounted to 103%.
With `Cc1cnc(NC(=O)c2ncoc2-c2cccs2)s1` [CBK283977], the viability at 28.5 h, 10 µM turned out to be 102%.
Same read-out and setting: the value for `Clc1ccc(COc2nccnc2OC2CCN(CC3CC3)CC2)cc1Cl` [CBK083123T] was 92.4%.
Same read-out and setting: the value for `Cc1c(C(=O)N2CCC[C@@H]2CO)nnn1Cc1ccc(F)cc1F` [CBK304071] was 89.2%; that for `CN(C)c1cccc(C2CCCN2c2nc3c(cnn3C)c(=O)[nH]2)c1` (centres unmarked) [CBK305220] was 78.6%; that for `CC(=O)N/C(=C/c1ccc([N+](=O)[O-])cc1)C(=O)Nc1cccc(C(=O)O)c1` [CBK264495] was 94.8%.
Still for that read-out and setting: the value for `CCOc1cc(C(=S)N2CCN(C)CC2)ccc1OCC(=O)N1CCOCC1` [CBK266856] was 101%; that for `CN(C)CCCn1c(=O)[nH]c2sc3c(c2c1=N)CC(C)(C)OC3` [CBK269103] was 107%.
Regarding `CC(=O)NCC1CCC2(CCN(c3nc(C)nc(C)c3C)CC2)O1` (centres unmarked) [CBK307404], the viability at 28.5 h, 10 µM was 94.1%.
Still for that read-out and setting: as for `CC(C)Nc1cc(Sc2ccccc2N)ncn1` [CBK093729], the figure is 91.6%.
Still for that read-out and setting: as for `CCOc1ccc2c(c1)CN(CC(=O)Nc1cc(C)no1)CC2` [CBK305993], the figure is 92.9%; as for `NC(CCc1nc2ccccc2[nH]1)c1nc2ccccc2[nH]1` (centres unmarked) [CBK269970], 96.2%; as for `CN(C)c1cccc(-c2ccc(Nc3cccc(NC(=O)c4ccncc4)c3)nc2)c1` [CBK037721], 58.7%.
The same measure, in the same setting: as for `O=C(NC1CCc2ccccc21)N1CCN(CCc2ccccc2)CC1` (centres unmarked) [CBK158936], the figure is 96.1%.
`CCc1nc2ccc(C(=O)NC3=NN(c4ccccc4)C(=O)C3)cn2c1N(C)C(=O)COc1ccccc1` [CBK145873]: the viability at 28.5 h, 10 µM was determined as 91.3%.
Still for that read-out and setting: as for `Cc1[nH]c2ccccc2c1/C=N/c1ccc(S(N)(=O)=O)cc1` [CBK261352], the figure is 96%.
Still for that read-out and setting: as for `CC(Sc1nc2ccccc2[nH]1)C(=O)O` (centres unmarked) [CBK263063], the figure is 101%; as for `O=C(Nc1cccc2ccccc12)N1CCN(Cc2ccc3c(c2)OCO3)CC1` [CBK074747], 89%.
Still for that read-out and setting: the value for `COc1ccc(C)cc1S(=O)(=O)N(CC(=O)O)Cc1ccccc1` [CBK267847] was 108%; that for `O=C1Nc2c(cnn2-c2ccccc2Cl)C2=NCCCN12` [CBK283331] was 100%.
In the case of `COc1cc(CNCc2ccccn2)ccc1OCc1cccc(Cl)c1` [CBK269877C], the viability at 28.5 h, 10 µM stood at 94.7%.
As for `O=C1CCC(=O)N1CCOc1nccnc1OC1CCN(CCc2ccc3ccccc3c2)CC1` [CBK084358], the viability at 28.5 h, 10 µM stood at 99.4%.
On the same count and under the same terms, as for `N/C(=N/OC(=O)c1ccc2nsnc2c1)c1ncon1` [CBK263847], the figure is 105%.
On the same count and under the same terms, the value for `Cc1cc(=O)n2c3ccccc3n(CC(O)CN3CCN(C(c4ccccc4)c4ccccc4)CC3)c2c1C#N` (centres unmarked) [CBK268375] was 89.8%; that for `O=P(O)(CCc1ccncc1)CN1CCOCC1` [CBK262317] was 89.3%.
On to `CC(=O)N1CCC(N2C[C@H](O)C[C@H]2c2nc(-c3cccc([N+](=O)[O-])c3)no2)CC1` [CBK288846], for which the viability at 28.5 h, 10 µM was 90.5%.
For the compound `COCCOc1cccc(OCCOc2nccnc2N2CCNC[C@H]2C)c1` [CBK048435], the viability at 28.5 h, 10 µM was 104%.
On the same count and under the same terms, as for `O=C1CC(SCCc2nc3ccccc3[nH]2)C(=O)N1c1ccc(F)cc1` (centres unmarked) [CBK267500], the figure is 88.8%; as for `Cc1cc(C)c(OCCOCCN2CCNCC2)c(Br)c1` [CBK266079G], 99.6%.
On the same count and under the same terms, the value for `CC(C)CNc1nc(SCC(N)=O)nc(N(C)C)n1` [CBK269579] was 93.8%.
The same measure, in the same setting: the value for `CCCc1[nH]nc(O)c1Cc1ccc(Cl)cc1` [CBK075013] was 90%.
For the compound `O=[N+]([O-])c1ccccc1S(=O)(=O)N1CCN(c2ccnc3cc(Cl)ccc23)CC1` [CBK267271], the viability at 28.5 h, 10 µM turned out to be 92.1%.
Still for that read-out and setting: as for `CN(C)Cc1cc(C[C@@H]2C[C@H](NS(=O)(=O)c3ccccc3)C2(C)C)no1` [CBK289307], the figure is 112%; as for `O=C(O)CCSc1nnc(-c2cccnc2)n1-c1ccccc1` [CBK268734], 102%; as for `Cc1ccc(-c2nnc(CNC(=O)C(c3ccccc3)c3ccccc3)o2)s1` [CBK286299], 102%.
On the same count and under the same terms, as for `COc1ccc2c(c1)CCC(c1ccccc1)=C2c1ccc(OCC(O)CN)cc1` (centres unmarked) [CBK015723C], the figure is 70.5%; as for `Nc1ncnc2c1ncn2C1OC(C(=O)O)C(O)C1O` (centres unmarked) [CBK262922], 99.9%; as for `CC(C)c1cc(C(=O)NC(c2ccccc2)c2ccnn2C)n(C)n1` (centres unmarked) [CBK282535], 102%.
Same read-out and setting: the value for `Cc1ccccc1CSc1nc2ccc([N+](=O)[O-])cc2[nH]1` [CBK267879] was 96.2%; that for `Cc1ccc(C(C)(C)C(=O)N2CC(C(=O)N3CCN(C)CC3)C2)cc1` [CBK281371] was 99.4%; that for `CS(=O)(=O)c1nsc(Cl)n1` [CBK007229] was 87.9%.
In the case of `CCn1nccc1C(=O)NC1=C(C#N)CCC1` [CBK265836], the viability at 28.5 h, 10 µM was determined as 97.6%.
The same measure, in the same setting: the value for `O=C(O)CCC(=O)Nc1ccccc1C(=O)N1CCCCC1` [CBK266100] was 99.5%; that for `CC(=O)c1c(C)c2c(=O)n3c(nc2[nH]c1=O)CCC3` [CBK287872] was 93.6%; that for `CCOc1ccc(C(C)(CC(=O)O)C(=O)O)cc1` (centres unmarked) [CBK261361] was 102%.
Still for that read-out and setting: the value for `CCCn1c(SCC(=O)Nc2cc(C(C)(C)C)no2)n[nH]c1=O` [CBK295648] was 104%.
Still for that read-out and setting: as for `CSc1nsc(SCC(=O)N(c2ccccc2)c2ccccc2)n1` [CBK269361], the figure is 95.3%; as for `Cc1nc(CNCc2c(C)nn(C)c2N(C)C)cs1` [CBK304808], 95.3%.
With `O=C(Cn1nc(C(=O)O)c2ccccc2c1=O)c1ccc(S(=O)(=O)N2CCOCC2)cc1` [CBK296939], the viability at 28.5 h, 10 µM is 90.2%.
Same read-out and setting: the value for `O=C(CCC(=O)Nc1ccc(I)cc1)N/N=C/c1ccc(Br)cc1` [CBK262010] was 88.9%.
On to `CCOc1ccc(CNc2ccc(N3CCOCC3)c(C(=O)O)c2)cc1OC` [CBK269192], for which the viability at 28.5 h, 10 µM worked out at 93%.

What is called viability is a read-out of living cells in per cent, often relative to untreated cells.

(Values after paper PMC12040169 (PLOS Biology, 2025).)
